The values that follow come from patent US20250250265A1, “BENZOTHIAZOLE-PHENYLSULFONYL-PIPERIDINE ANALOGS AS ACTIVATORS OF NACYLPHOSPHATIDYLETHANOLAMINE HYDROLYZING PHOSPHOLIPASE D” (priority 2022, published 2025).

Where two headings read alike, the source gives them in different places. Marks after values point to notes of the source that are not given here.

Series [1] concerns the target T1, recombinant mouse NAPE-PLD (Mus musculus, UniProt Q8BH82).
T1 construct: hexahistidine (His6) (C); made in house; host or cells: E. coli
T1 sequence (Q8BH82 1-396): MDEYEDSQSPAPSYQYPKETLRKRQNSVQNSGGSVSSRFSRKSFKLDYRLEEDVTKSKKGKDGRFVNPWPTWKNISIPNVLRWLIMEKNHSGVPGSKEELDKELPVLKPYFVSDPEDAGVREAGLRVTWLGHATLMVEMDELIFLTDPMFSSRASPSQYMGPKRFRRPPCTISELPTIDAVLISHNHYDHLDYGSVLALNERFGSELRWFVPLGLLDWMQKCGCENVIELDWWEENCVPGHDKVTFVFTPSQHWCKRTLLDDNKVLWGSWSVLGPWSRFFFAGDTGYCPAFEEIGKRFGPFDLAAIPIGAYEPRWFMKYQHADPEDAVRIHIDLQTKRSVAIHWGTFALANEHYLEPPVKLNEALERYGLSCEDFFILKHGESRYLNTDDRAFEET
The series is described as follows: In vitro fluorescence NAPE-PLD activity assay (HTS/CRC) with recombinant mouse NAPE-PLD and PED-A1. It counts as biochemical. Particulars: for Emax (95% Cl): Table 4, maximal efficacy as fold increase in NAPE-PLD activity versus vehicle only; for AC50 (nM) / Max % bA (%) / AC50: Table 1; for AC50 (nM) / AC50: concentration for 50% maximum activation from basal activity (no activator); for Max % bA (%): maximum induced activity compared to basal (100%) activity. As to the method: Using the fluorogenic NAPE substrate, PED-A1, and recombinant mouse NAPE-PLD (rNAPE-PLD), an in vitro high-throughput (HTS) assay was conducted to screen ˜40,000 compounds for their ability to modulate NAPE-PLD activity. The HTS assay enabled the detection of both NAPE-PLD activators and inhibitors. […] Initial structure-activity response studies with the top hits identified benzothiazole phenylsulfonyl-piperidine carboxamide analogs (BT-PSP analogs) as lead compounds for NAPE-PLD activators (Table 1). The lead BT-PSP analog identified, VU534, induces 50% of its activation effect on NAPE-PLD at 270 nM (AC50 270 nM), and induces a maximal effect of 195% of basal NAPE-PLD activity (Table 1).
In vitro fluorescence NAPE-PLD activity assays using recombinant NAPE-PLD and either PED-A1 or flame-NAPE as fluorogenic substrate were performed as previously described except with small modifications as noted below. See Aggarwal et al., J. Biol. Chem. 295(21): 7289-7300 (2020); Zarrow et al., J. Lipid Res. 63(1): 100156 (2022).
For the HTS assays, test compounds were incubated with recombinant enzyme for 1 h prior to adding PED-A1 (final 0.4 μM) mixed with N-palmitoyl-dioleoyl-PE (final 3.6 μM) to adjust for the high sensitivity of the Panoptic instrument (WaveFront Biosciences). Assays used black-wall, clear-bottom, non-sterile, and non-treated 384-well plates (Greiner Bio-One 781906). The assay was read in kinetic fluorescence mode on the Panoptic instrument for 4 min and the slope of the signal from 30-100 s was used for analysis. A total of 39,328 compounds from the Vanderbilt Discovery Collection were tested, each at 10 μM. The tested compounds were chosen to represent a structurally diverse selection from the full library. Each 384-well plate included 320 test compound wells and 64 control wells. Unlike previous pilot screening assays, bithionol (10 μM final) was used in place of lithocholic acid (100 μM final) as the inhibitor control. Before performing high-throughput screening, a checkerboard assay was performed to validate the assay parameters. This yielded a Z′ score of 0.676. Z′ scores were also calculated for each plate during screening, and plates with scores <0.5 were re-run. The average Z′ across all screening plates was 0.52, and the total hit rate was 3.6%. B-scores were calculated from the initial slopes across each plate using WaveGuide software (WaveFront Biosiences). Modulator hits were defined as compounds with absolute B-scores of 3 or higher. The number of compounds in various B-score ranges were as follows: […], 12 compounds; −10 to −5, 221 compounds; −5 to −3, 770 compounds; −3 to 3, 37924 compounds; 3 to 4, 314 compounds; 4 to 6, 70 compounds; 6 to 10, 15 compounds. Activator hits with B-scores of >3 were selected for the replication assay and a selection of analogs of the activators.
Concentration response curve (CRC) experiments used the same assay conditions as the HTS assay, except that graded concentrations of each test compound were used, with total amount of vehicle (DMSO) kept constant. CRC experiments with purified recombinant mouse NAPE-PLD were performed on two separate days, with values from each day normalized to vehicle only controls on same plate, and then all normalized values from both days averaged together. CRC experiments with human NAPE-PLD represent value from only a single day, due to limited amounts of this recombinant enzyme.

Series [2] deals with RAW264.7 mouse macrophages. The series is described as follows: Cytotoxicity (MTT) in RAW264.7 macrophages. Format: cell-based. Particulars: Table 2; Mϕ, 33 μM compound. As to the method:
Cytotoxicity was measured using MTT as previously described except that the studies used 96-well plates with 100 μL of 0.3 mg/mL MTT solution was added after 24 h of treatment and then replaced after 3 h with 0.1 M HCl in isopropanol. See Aggarwal et al., J. Biol. Chem. 295(21): 7289-7300 (2020). Viability was expressed as percent absorbance at 560 nm relative to vehicle controls.

In series [3] the target is T2, Fatty Acid Amide Hydrolase (FAAH) (Homo sapiens, UniProt O00519).
T2 construct: purchased Cayman Chemicals
T2 sequence (O00519 1-579): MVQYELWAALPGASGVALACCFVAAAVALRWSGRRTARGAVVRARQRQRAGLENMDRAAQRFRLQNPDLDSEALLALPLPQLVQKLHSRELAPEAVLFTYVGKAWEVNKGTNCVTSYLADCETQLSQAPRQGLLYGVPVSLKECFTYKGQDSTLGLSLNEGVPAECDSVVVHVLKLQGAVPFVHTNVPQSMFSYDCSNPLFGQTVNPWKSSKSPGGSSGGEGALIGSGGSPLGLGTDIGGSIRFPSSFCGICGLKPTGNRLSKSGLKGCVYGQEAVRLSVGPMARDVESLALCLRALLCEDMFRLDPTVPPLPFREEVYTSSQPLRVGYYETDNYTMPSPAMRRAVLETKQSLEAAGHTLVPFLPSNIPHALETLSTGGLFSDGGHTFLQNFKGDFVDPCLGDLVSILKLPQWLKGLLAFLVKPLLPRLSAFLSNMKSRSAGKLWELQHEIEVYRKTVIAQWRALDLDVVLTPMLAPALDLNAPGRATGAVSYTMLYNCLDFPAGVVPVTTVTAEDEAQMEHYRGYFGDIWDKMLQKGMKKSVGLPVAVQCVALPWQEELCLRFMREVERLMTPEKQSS
The series is described as follows: FAAH activity assay (Cayman Chemicals). Particulars: 33 μM compound, compared to vehicle (0%). It counts as biochemical. As to the method:
(§1) Concentration response curves were plotted for VU534 for the enzymes fatty acid amide hydrolase (FAAH) and soluble epoxide hydrolase (sEH).
(§2) The fluorescence interference assay was performed using the same method as the HTS assay, but with BODIPY-FL C5 (Thermo Fisher Scientific) used in place of PED-A1. sEH and FAAH activity assays were performed according to the manufacturer's specifications (Cayman Chemicals).

Series [4] addresses T3, soluble epoxide hydrolase (sEH) (Homo sapiens, UniProt P34913).
T3 construct: purchased Cayman Chemicals
T3 sequence (P34913 1-555): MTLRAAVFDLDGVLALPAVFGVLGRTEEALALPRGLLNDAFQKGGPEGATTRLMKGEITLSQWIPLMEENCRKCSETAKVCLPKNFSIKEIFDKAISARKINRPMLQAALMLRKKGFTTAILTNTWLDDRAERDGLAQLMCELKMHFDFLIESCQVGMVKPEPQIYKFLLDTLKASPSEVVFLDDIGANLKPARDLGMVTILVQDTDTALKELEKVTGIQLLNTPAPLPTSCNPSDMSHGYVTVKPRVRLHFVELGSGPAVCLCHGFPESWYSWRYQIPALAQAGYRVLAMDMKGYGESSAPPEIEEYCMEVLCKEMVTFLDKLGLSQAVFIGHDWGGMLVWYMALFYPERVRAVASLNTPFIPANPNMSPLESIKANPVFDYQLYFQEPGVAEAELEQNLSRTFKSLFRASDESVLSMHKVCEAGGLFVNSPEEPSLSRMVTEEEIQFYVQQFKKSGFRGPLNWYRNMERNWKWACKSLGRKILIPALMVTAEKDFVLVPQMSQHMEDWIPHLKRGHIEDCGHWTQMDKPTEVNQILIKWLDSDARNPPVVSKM
The series is described as follows: sEH activity assay (Cayman Chemicals). Format: biochemical. Particulars: 33 μM compound, compared to vehicle (0%). As to the method: as §1, §2

Setting [5] is: Table 2, maximal induced activity for recombinant NAPE-PLD compared to basal (100%), read-out: Emax (%).
The mark [6] stands for this setting: Table 2, rNAPE-PLD activity assay, read-out: EC50.
Where [7] appears, read: Table 3, read-out: In vitro EC50.
[8] abbreviates: Table 3, read-out: In vitro Emax (100% activity is baseline activity of vehicle only).
The mark [9] stands for this setting: Table 2, rNAPE-PLD activity assay.

As usually defined, the Emax is the greatest response seen or fitted, relative to the assay's reference. In general, EC50 refers to the concentration at which the effect is half-maximal. For `O=C(Nc1nc2ccccc2s1)C1CCN(S(=O)(=O)c2ccc(F)cc2)CC1` [VU488], the Emax amounted to 135% in series [1] (setting [5]) and 136% in series [1] (setting [8]). Further, the EC50 in series [1] (setting [6]) and in series [1] (setting [7]) was 390 nM throughout. Also, the “Emax (95% Cl)” value in series [1] is 1.7 (1.6-1.8) fold.
For the molecule `COc1ccc(S(=O)(=O)N2CCC(C(=O)Nc3nc4ccc(C)cc4s3)CC2)cc1` [VU601], in series [1] (setting [7]), the EC50 was roughly 1000 nM. The Emax in series [1] (setting [8]) was determined as 171%. Besides, in series [1], the “Emax (95% Cl)” value was 1.8 (1.8-1.9) fold.
Turning to `Cc1cccc2sc(NC(=O)C3CCN(S(=O)(=O)c4ccc(F)cc4)CC3)nc12` [VU231], in series [1], the “AC50 (nM)” value is recorded as “Not active”, the “Max % bA (%)” value is listed as less than 120% and the “Emax (95% Cl)” value is recorded as 2.0^d fold. The Emax in series [1] (setting [5]) was less than 120%. For the same molecule, the “EC50 (μM)” value in series [1] (setting [9]) was “Inactive”. Moreover, the EC50 in series [1] (setting [7]) stood at 1100 nM. Besides, the Emax in series [1] (setting [8]) was 168%.
On to `O=C(Nc1nc2ccccc2s1)C1CCN(S(=O)(=O)c2ccc(Cl)cc2)CC1` [VU541], for which, in series [1] (setting [7]), the EC50 stood at 3300 nM. For the same molecule, in series [1] (setting [8]), the Emax came out at 153%.
As a reminder, the AC50 is the concentration giving half of the maximal activity seen. As to `Cc1ccc2nc(NC(=O)C3CCN(S(=O)(=O)c4ccc(Cl)cc4)CC3)sc2c1` [VU539], in series [1], the AC50 was 2380 nM. Besides, in series [1], the “Max % bA (%)” value is 170%. In addition, the Emax was found to be 170% in series [1] (setting [5]) and 167% in series [1] (setting [8]). Moreover, the EC50 in series [1] (setting [6]) turned out to be 2380 nM; in series [1] (setting [7]), 2400 nM. For the same molecule, in series [1], the “Emax (95% Cl)” value was 1.7 (1.6-1.8) fold.
Take `COc1ccc(S(=O)(=O)N2CCC(C(=O)Nc3nc4c(C)cccc4s3)CC2)cc1` [VU605]: in series [1], the AC50 stood at 1040 nM, the “Max % bA (%)” value is listed as 170% and the “Emax (95% Cl)” value was 2.1 (2.0-2.2) fold. The Emax in series [1] (setting [5]) was less than 120%. Besides, the “EC50 (μM)” value in series [1] (setting [9]) is given as “Inactive”. Besides, the EC50 in series [1] (setting [7]) was roughly 200 nM. Moreover, the Emax in series [1] (setting [8]) was roughly 119%.
For orientation: inhibition means how much of the control response was suppressed. A low value points to little suppression. Take `Cc1cc(F)ccc1S(=O)(=O)N1CCC(C(=O)Nc2nc3c(C)cccc3s2)CC1` [MRJ-058A]: the “33 μM Mϕ % Viability” value in series [2] was 55%. Also, the inhibition at 33 µM is 20% in series [3] and 85% in series [4]. The Emax in series [1] (setting [5]) came to 150%. Also, the EC50 in series [1] (setting [6]) worked out at 2900 nM.
As to `COc1ccc2nc(NC(=O)C3CCN(S(=O)(=O)c4ccc(F)cc4)CC3)sc2c1` [VU484], the EC50 in series [1] (setting [7]) is 2600 nM. The Emax in series [1] (setting [8]) is 162%. Further, the “Emax (95% Cl)” value in series [1] is 2.1 (2.0-2.2) fold.
Take `Cc1ccc(S(=O)(=O)N2CCC(C(=O)Nc3nc4ccc(Cl)cc4s3)CC2)cc1` [VU572]: the Emax in series [1] (setting [8]) is roughly 349%.
Consider `COc1cccc2sc(NC(=O)C3CCN(S(=O)(=O)c4ccc(F)cc4)CC3)nc12` [VU485], for which the EC50 in series [1] (setting [7]) was 29000 nM. In addition, the Emax in series [1] (setting [8]) was 232%. The “Emax (95% Cl)” value in series [1] is 2.0 (1.8-4.0) fold.
Turning to `Cc1cc(F)ccc1S(=O)(=O)N1CCC(C(=O)Nc2nc3ccccc3s2)CC1` [VU205], the “Emax (95% Cl)” value in series [1] is recorded as less than 1.2 fold.
`Cc1cccc2sc(NC(=O)C3CCN(S(=O)(=O)c4ccc(Cl)cc4)CC3)nc12` [VU542]: in series [1], the “AC50 (nM)” value is given as “Not active”, the “Max % bA (%)” value is on record as less than 120% and the “Emax (95% Cl)” value is 1.9 (1.9-2.0) fold. Also, in series [1] (setting [5]), the maximum response (Emax) is less than 120%. The “EC50 (μM)” value in series [1] (setting [9]) is “Inactive”. The EC50 in series [1] (setting [7]) came out at 1100 nM. Moreover, the Emax in series [1] (setting [8]) was 183%.
